Results as given in patent publication US20070037817A1, “Acetylenic piperazines as metabotropic glutamate receptor antagonists” (AstraZeneca AB, priority 2005, published 2007).

Biological target: T1, human mGluR5d (Homo sapiens, UniProt P41594)
T1 construct: expressed in transfected cells; host or cells: GHEK (HEK cells expressing a glutamate transporter) for the IP3 assay
Test: Functional assessment of mGluR5 antagonism in cell lines expressing mGluR5d (FLIPR [Ca2+]i mobilization assay / IP3 turnover assay; assay behind the values not specified)
Assay type: cell-based
Details: assays described herein (FLIPR or IP3), cells expressing human mGluR5d
Text: The pharmacological properties of the compounds of the invention can be analyzed using standard assays for functional activity. Examples of glutamate receptor assays are well known in the art as described in for example Aramori et al., Neuron 8:757 (1992), Tanabe et al., Neuron 8:169 (1992), Miller et al., J. Neuroscience 15: 6103 (1995), Balazs, et al., J Neurochemistry 69:151 (1997). The methodology described in these publications is incorporated herein by reference. Conveniently, the compounds of the invention can be studied by means of an assay that measures the mobilization of intracellular calcium, [Ca^2+]i in cells expressing mGluR5.
Intracellular calcium mobilization was measured by detecting changes in fluorescence of cells loaded with the fluorescent indicator fluo-3. Fluorescent signals were measured using the FLIPR system (Molecular Devices). A two addition experiment was used that could detect compounds that either activate or antagonize the receptor.
For FLIPR analysis, cells expressing human mGluR5d were seeded on collagen coated clear bottom 96-well plates with black sides and analysis of [Ca^2+]i mobilization was done 24 hours after seeding.
FLIPR experiments were done using a laser setting of 0.800 W and a 0.4 second CCD camera shutter speed. Each FLIPR experiment was initiated with 160 μL of buffer present in each well of the cell plate. After each addition of the compound, the fluorescence signal was sampled 50 times at 1 second intervals followed by 3 samples at 5 second intervals. Responses were measured as the peak height of the response within the sample period.
EC50 and IC50 determinations were made from data obtained from 8-point concentration response curves (CRC) performed in duplicate. Agonist CRC were generated by scaling all responses to the maximal response observed for the plate. Antagonist block of the agonist challenge was normalized to the average response of the agonist challenge in 14 control wells on the same plate.
We have validated a secondary functional assay for mGluR5d based on Inositol Phosphate (IP3) turnover. IP3 accumulation is measured as an index of receptor mediated phospholipase C turnover. GHEK cells stably expressing the human mGluR5d receptors were incubated with [3H] myo-inositol overnight, washed three times in HEPES buffered saline and pre-incubated for 10 min. with 10 mM LiCl. Compounds (agonists) were added and incubated for 30 min. at 37° C. Antagonist activity was determined by pre-incubating test compounds for 15 min., then incubating in the presence of glutamate (80 μM) or DHPG (30 μM) for 30 min. Reactions were terminated by the addition of perchloric acid (5%). Samples were collected and neutralized, and inositol phosphates were separated using Gravity-Fed Ion-Exchange Columns.
Functional assessment of mGluR5 Antagonism in Cell Lines Expressing mGluR5D
The properties of the compounds of the invention can be analyzed using standard assays for pharmacological activity. Examples of glutamate receptor assays are well known in the art as described in for example Aramori et al., Neuron 8:757 (1992), Tanabe et al., Neuron 8:169 (1992), Miller et al., J. Neuroscience 15: 6103 (1995), Balazs, et al., J. Neurochemistry 69:151 (1997). The methodology described in these publications is incorporated herein by reference. Conveniently, the compounds of the invention can be studied by means of an assay (FLIPR) that measures the mobilization of intracellular calcium, [Ca^2+]i in cells expressing mGluR5 or another assay (IP3) that measures inositol phosphate turnover.
Cells expressing human mGluR5d as described in WO97/05252 are seeded at a density of 100,000 cells per well on collagen coated clear bottom 96-well plates with black sides and experiments are done 24 h following seeding. All assays are done in a buffer containing 127 mM NaCl, 5 mM KCl, 2 mM MgCl2, 0.7 mM NaH2PO4, 2 mM CaCl2, 0.422 mg/ml NaHCO3, 2.4 mg/ml HEPES, 1.8 mg/ml glucose and 1 mg/ml BSA Fraction IV (pH 7.4). […]

T1 sequence (P41594 21-942 isoform P41594-3 limits assumed): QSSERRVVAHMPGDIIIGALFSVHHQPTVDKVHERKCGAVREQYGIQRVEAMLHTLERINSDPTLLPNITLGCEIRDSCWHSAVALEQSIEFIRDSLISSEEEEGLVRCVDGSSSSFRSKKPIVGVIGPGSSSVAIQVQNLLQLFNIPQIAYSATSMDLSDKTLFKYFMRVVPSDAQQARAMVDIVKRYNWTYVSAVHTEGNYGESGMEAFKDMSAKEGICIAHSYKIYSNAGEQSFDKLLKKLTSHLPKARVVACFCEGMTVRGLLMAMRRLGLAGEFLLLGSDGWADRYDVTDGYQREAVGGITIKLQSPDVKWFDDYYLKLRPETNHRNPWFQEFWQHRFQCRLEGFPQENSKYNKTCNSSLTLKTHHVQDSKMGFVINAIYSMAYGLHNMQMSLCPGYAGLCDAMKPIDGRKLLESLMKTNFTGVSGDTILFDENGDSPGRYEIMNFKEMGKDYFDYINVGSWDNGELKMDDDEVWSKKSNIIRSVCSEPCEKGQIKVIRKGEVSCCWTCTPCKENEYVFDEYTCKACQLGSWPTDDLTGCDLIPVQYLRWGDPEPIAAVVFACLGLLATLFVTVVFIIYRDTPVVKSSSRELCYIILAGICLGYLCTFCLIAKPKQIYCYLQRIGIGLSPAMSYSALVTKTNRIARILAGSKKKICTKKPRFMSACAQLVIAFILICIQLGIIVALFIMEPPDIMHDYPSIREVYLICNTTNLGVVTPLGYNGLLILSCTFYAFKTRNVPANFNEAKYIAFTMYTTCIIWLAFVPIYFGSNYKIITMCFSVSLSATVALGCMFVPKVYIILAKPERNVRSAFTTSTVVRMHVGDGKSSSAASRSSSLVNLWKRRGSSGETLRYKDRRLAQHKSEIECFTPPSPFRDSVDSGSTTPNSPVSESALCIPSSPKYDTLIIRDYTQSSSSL

| SMILES | IC50 |
| --- | --- |
| COC(=O)c1cccnc1N1CCN2[C@@H](CC[C@@H]2C#Cc2cccc(Cl)c2)C1 (racemic) [Example 13.12, (±)-methyl 2-[(6R,8aS)-6-[(3-chloro-phenyl)ethynyl]hexahydropyrrolo[1,2-a]pyrazin-2(1H)-yl]nicotinate] | 23 nM |
| N#Cc1cccc(C#C[C@H]2CCC[C@H]3CN(c4ncccc4C#N)CCN32)c1 (racemic) [Example 18.3, (±)-2-{(6R,9aS)-6-[(3-cyanophenyl)ethynyl]octahydro-2H-pyrido[1,2-a]pyrazin-2-yl}nicotinonitrile] | 20 nM |
| N#Cc1ccc(N2CCN3[C@@H](CC[C@H]3C#Cc3cccc(Cl)c3)C2)nc1 [Example 13.3, 6-[(6S,8aS)-6-[(3-chlorophenyl)ethynyl]hexahydropyrrolo[1,2-a]pyrazin-2(1H)-yl]nicotinonitrile] | 486 nM |
| N#Cc1cc(F)cnc1N1CCN2[C@@H](CCC[C@@H]2C#Cc2ccccn2)C1 (racemic) [Example 18.7, (±)-5-fluoro-2-[(6R,9aS)-6-(pyridin-2-ylethynyl)octahydro-2H-pyrido [1,2-a]pyrazin-2-yl]nicotinonitrile] | 83 nM |
| CCOC(=O)N1CCN2[C@@H](CC[C@H]2C#Cc2cccc(Cl)c2)C1 [Example 12.3, ethyl (6S,8aS)-6-[(3-chloro-phenyl)ethynyl]hexahydropyrrolo[1,2-a]pyrazine-2(1H)-carboxylate] | 187 nM |
| N#Cc1nccnc1N1CCN2[C@@H](CC[C@@H]2C#Cc2nccs2)C1 (racemic) [Example 14.26, (±)-3-[(6R,8aS)-6-(1,3-thiazol-2-yl-ethynyl)hexahydropyrrolo[1,2-a]pyrazin-2(1H)-yl]pyrazine-2-carbonitrile] | 439 nM |
